Source: paper PMC10714399, “Open Source Antibiotics: Simple Diarylimidazoles Are Potent against Methicillin-Resistant Staphylococcus aureus” (ACS Infectious Diseases, 2023)
In brackets after ≈: the same amount, converted by molar mass. Several values for one entry are separate records, joined by “and”; a condition that tells them apart may be missing. Equal entries are not always repeated. Where two headings read alike, the source gives them in different places.

Assays:
[1] = tested on: Staphylococcus aureus NCTC 13373 (mecA-positive; methicillin-resistant); assay: In vitro antibacterial activity, MIC (UCL School of Pharmacy assay), MRSA; type: cell-based; conditions: for MIC: Staphylococcus aureus
How it was run: (§1)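 Broth microdilution in isosensitest broth; inoculum from overnight tryptone soya agar culture adjusted to A600 0.1 (~1 × 10^8 CFU/mL) then diluted 1:100. Compounds tested as 2-fold series, 32 to 0.03 μg/mL, DMSO at most 2%; vancomycin as quality control.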

[2] = tested on: S. aureus ATCC 25923 (methicillin-susceptible); assay: In vitro antibacterial activity, MIC (UCL), MSSA; type: cell-based, Staphylococcus aureus; conditions: Staphylococcus aureus
How it was run: as §1

Aqueous solubility = type: physicochemical; conditions: for solubility: thermodynamic from solid
LogD7.4 (Chrom Log D) = type: physicochemical
Text: To guide our initial SAR exploration work, we obtained liver microsomal intrinsic clearance data for 5 of the 18 compounds assayed by CO-ADD (Supporting Information - CDCO Report and Supporting Information - Biology). We then acquired intrinsic clearance (CLint), plasma protein binding (PPB), and solubility data on further compounds throughout the SAR campaign (Supporting Information - Biology, Tables S3 and S4). […] The more polar compounds (lower LogD) had reduced PPB and were more metabolically stable.
Table S4. ADME and Pharmacokinetics: compounds only appearing in the Supplementary […]
MRSA Aqueous HLM CLint Rat Hep CLint
Cmpd MIC Solubility Human PPB (%) (µL/min/mg (µL/min/10x6 LogD7.4
(µg/mL) (µM) protein) cells)
(§2) ADME and toxicity for compounds were measured according to procedures outlined in the manuscript submitted in parallel to this one;2 other procedures were used for those compounds analysed by Monash University (in vitro ADME) or UCL (toxicity), both described in the main

[3] = Human plasma protein binding (PPB); type: in vitro ADME; conditions: human, plasma
[4] = Human liver microsome intrinsic clearance; type: in vitro ADME
[5] = Rat hepatocyte intrinsic clearance; type: in vitro ADME
[6] = tested on: MRC-5SV2 (human lung fibroblast cell line); assay: Toxicity against MRC-5SV2; type: cell-based
Procedure: as §2

[7] = tested on: PMM (primary mouse macrophages); assay: Toxicity against PMM; type: cell-based
Procedure: as §2

[8] = tested on: Enterococcus faecalis ATCC 51299 (vanA-positive; vancomycin-resistant); assay: In vitro antibacterial activity, MIC (UCL), VRE; type: cell-based
How it was run: as §1

VSE = assay: In vitro antibacterial activity, MIC, VSE; type: cell-based; conditions: read-out: VSE MIC (UCL)
[9] = UCL assay, read-out: MRSA MIC (ug/mL) (UCL)
[10] = UCL assay, read-out: MSSA MIC (ug/mL) (UCL)
[11] = NEU, read-out: Aqueous Solubility (uM) (NEU)
[12] = chromatographic system (Chrom Log D), pH 7.4, NEU, read-out: LogD 7.4 (NEU)
[13] = human plasma, NEU, read-out: Human PPB (%) (NEU) (converted)
[14] = rat hepatocytes, NEU, read-out: Rat Hep CLint (uL/min/10x6 cells) (NEU)
[15] = human liver microsomes, NEU, read-out: HLM CLint (uL/min/mg protein) (NEU)
[16] = human, liver microsomes, read-out: HLM CLint
[17] = rat, hepatocytes, Figure 4, read-out: Rat Hep CLint
[18] = NEU, read-out: Aqueous Solubility (NEU)
[19] = human plasma, NEU, read-out: Human PPB (NEU) (converted)
[20] = human liver microsomes, NEU, read-out: HLM CLint (NEU)
[21] = rat hepatocytes, NEU, read-out: Rat Hep CLint (NEU)
[22] = read-out: Human PPB (converted)

Structure (SMILES) | chromatographic logD (LogD7.4 (Chrom Log D); [12]) | MIC ([1]; UCL, read-out: MRSA MIC (UCL)) [µg/mL] | MIC ([2]; read-out: MSSA MIC (UCL)) [µg/mL] | solubility (Aqueous solubility; [18]) [µM] | fraction unbound [3, 19] | microsomal CLint [4, 20] [µL/min/mg] | hepatocyte CLint [5, 21] [µL/min/1e6 cells] | MIC ([8]; read-out: VRE MIC (UCL)) [µg/mL] | other results
CS(=O)(=O)c1ccc2nc(-c3ccccn3)c(Nc3ccc(F)cc3)n2c1 [OSA_001020] | 2.4 |  |  |  |  |  |  |  | MIC [1, 9]: > 32 µg/mL; MIC [2, 10]: > 32 µg/mL; solubility (Aqueous solubility; [11]): 5 µM (≈ 1.91 µg/mL); fraction unbound [3, 13]: 0.11; HLM CLint (uL/min/mg protein) (NEU) ([4]; human liver microsomes, NEU): 92 uL/min/mg protein; hepatocyte CLint [5, 14]: > 300 µL/min/1e6 cells; MRC5 TC50 ([6]; MRC5 cells): 64 µM; PMM TC50 ([7]; PMM): 32 µM
CC(C)CN(c1ccc(F)cc1)c1c(-c2ccccn2)nc2cc(F)ccn12 [OSA_001023] | 4.3 |  |  |  |  |  |  |  | MIC [1, 9]: 8 µg/mL (≈ 21.1 µM); MIC [2, 10]: 4 µg/mL (≈ 10.6 µM); solubility (Aqueous solubility; [11]): 11 µM (≈ 4.16 µg/mL); fraction unbound [3, 13]: 0.0023; microsomal CLint [4, 15]: 13.6 µL/min/mg; hepatocyte CLint [5, 14]: 110 µL/min/1e6 cells
Fc1ccc(-c2c(-c3ccccn3)nc3ccccn23)cc1 [compound 859] |  |  |  |  |  |  |  |  | activity against MRSA, in words [1]: inactive; MIC ([1]; 16 h, read-out: MRSA MIC): > 32 µg/mL; MIC ([1]; read-out: MRSA MIC): 32 µg/mL (≈ 111 µM); MIC ([8]; read-out: VRE MIC): > 32 µg/mL; solubility (Aqueous solubility; read-out: Aqueous Solubility): 178 µM (≈ 51.5 µg/mL); chromatographic logD (LogD7.4 (Chrom Log D); pH 7.4, read-out: LogD7.4): 3; microsomal CLint [4, 16]: 168 µL/min/mg; hepatocyte CLint [5, 17]: 49.8 µL/min/1e6 cells; MRC5 TC50 [6]: 3.0 µg/mL; PMM TC50 [7]: 9.3 µg/mL
CSc1ccc2nc(-c3ccccn3)c(N(C)c3ccc(F)cc3)n2c1 [OSA_001004] | 4.5 | 8 (≈ 22 µM) | 8 (≈ 22 µM) | 7 (≈ 2.55 µg/mL) | 0.0054 | > 300 | > 300 |  | 
CN(c1ccc(F)cc1)c1c(-c2ccccn2)nc2c(F)cccn12 [OSA_001006] | 3.3 | > 32 | > 32 | 26 (≈ 8.74 µg/mL) | 0.034 | 127 | 209 |  | 
COc1cccc(-c2nc3ccccn3c2N(CC(C)C)c2ccc(F)cc2)n1 [OSA_001025] | > 3.7 |  |  |  |  |  |  |  | MIC [1, 9]: > 32 µg/mL; MIC [2, 10]: > 32 µg/mL; solubility (Aqueous solubility; [11]): 0.7 µM (≈ 0.273 µg/mL); fraction unbound [3, 13]: < 0.01; microsomal CLint [4, 15]: 86.8 µL/min/mg
COc1ccn2cc(-c3ccccn3)nc2c1 [OSA_000856] | 2.2 | > 32 |  | 723 (≈ 163 µg/mL) | 0.21 | > 300 |  | > 32 | Rat Hep CLint (NEU) ([5]; rat hepatocytes, NEU): 52.9 uL/min/10x6 cells; MRC5 TC50 ([6]; MRC5 cells): 51.6 µM; PMM TC50 ([7]; PMM): 64 µM
COc1cccn2c(N(C)c3ccc(F)cc3)c(-c3ccccn3)nc12 [OSA_001001] | 3.5 | 16 (≈ 45.9 µM) | 16 (≈ 45.9 µM) | 26 (≈ 9.06 µg/mL) | 0.026 | 65.9 | > 300 |  | 
Cc1ccc(-c2c(-c3ccccn3)nc3cc(Cl)ccn23)cc1 [compound 978] |  |  |  |  |  |  |  |  | MIC ([1]; 16 h, read-out: MRSA MIC): 4 µg/mL (≈ 12.5 µM); MIC ([1]; read-out: MRSA MIC): 4 µg/mL (≈ 12.5 µM); MIC ([8]; read-out: VRE MIC): 8 µg/mL (≈ 25 µM); solubility (Aqueous solubility; read-out: Aqueous Solubility): 5 µM (≈ 1.6 µg/mL); chromatographic logD (LogD7.4 (Chrom Log D); pH 7.4, read-out: LogD7.4): 3.1; fraction unbound [3, 22]: 0.01; microsomal CLint [4, 16]: 65.6 µL/min/mg; hepatocyte CLint [5, 17]: 104 µL/min/1e6 cells
Cc1ccc(-c2c(-c3ccccn3)nc3cc(Cl)ccn23)cc1 [OSA_000978] | 3.1 | 4 (≈ 12.5 µM) |  |  | 0.0055 |  |  | 8 (≈ 25 µM) | Aqueous Solubility (NEU) (Aqueous solubility; NEU): 5 µM; HLM CLint (NEU) ([4]; human liver microsomes, NEU): 65.6 uL/min/mg protein; Rat Hep CLint (NEU) ([5]; rat hepatocytes, NEU): 104 uL/min/10x6 cells
CCN(CC)c1ccc(-c2c(-c3ccccn3)nc3ccccn23)cc1 [OSA_001011] | 4.3 | 4 (≈ 11.7 µM) | 4 (≈ 11.7 µM) | 38 (≈ 13 µg/mL) | 0.004 | 159 | 192 |  | 
CN(c1ccc(F)cc1)c1c(-c2ccccn2)nc2ccc(Br)cn12 [OSA_001003] | 4.2 | 16 (≈ 40.3 µM) | 16 (≈ 40.3 µM) | 4 (≈ 1.59 µg/mL) | 0.0018 | 61.6 | > 300 |  | 
Fc1ccc(Nc2c(-c3ccccn3)nc3sccn23)cc1 [OSA_000984] | 0.9 | 8 (≈ 25.8 µM) | 4 (≈ 12.9 µM) | 54 (≈ 16.8 µg/mL) | 0.014 |  | > 300 | 8 (≈ 25.8 µM) | MRC5 TC50 ([6]; MRC5 cells): 6.4 µM; PMM TC50 ([7]; PMM): 32 µM
Cc1ccc(-c2c(-c3ccccn3)nc3ccccn23)cc1 [compound 1018] |  |  |  |  |  |  |  |  | MIC ([1]; 16 h, read-out: MRSA MIC): 4 µg/mL (≈ 14 µM); MIC ([1]; read-out: MRSA MIC): 4 µg/mL (≈ 14 µM); MIC ([2]; read-out: MSSA MIC): 4 µg/mL (≈ 14 µM); solubility (Aqueous solubility; read-out: Aqueous Solubility): 43 µM (≈ 12.3 µg/mL); chromatographic logD (LogD7.4 (Chrom Log D); pH 7.4, read-out: LogD7.4): 3.3; fraction unbound [3, 22]: 0.01; microsomal CLint [4, 16]: 122 µL/min/mg; hepatocyte CLint [5, 17]: 57.7 µL/min/1e6 cells
COc1ccc(-c2nc3ccc(OC)cn3c2N(C)c2ccc(F)cc2)nc1 [OSA_000999] |  | 8 (≈ 21.1 µM) | 8 (≈ 21.1 µM) | 27 (≈ 10.2 µg/mL) | 0.0063 |  | > 300 | 16 (≈ 42.3 µM) | MIC (VSE): 16 µg/mL (≈ 42.3 µM); HLM CLint (NEU) ([4]; human liver microsomes, NEU): 261 uL/min/mg protein
COc1ccn2c(-c3cccc(Cl)n3)c(-c3ccccn3)nc2c1 [OSA_000857] | 2.5 | > 32 |  | 37 (≈ 12.5 µg/mL) | 0.035 | 124 | 12.9 | > 32 | MRC5 TC50 ([6]; MRC5 cells): 24.2 µM; PMM TC50 ([7]; PMM): 64 µM
COc1ccc2nc(-c3ccccn3)c(N(C)c3cc(F)cc(F)c3)n2c1 [OSA_000998] | 4 | 8 (≈ 21.8 µM) | 8 (≈ 21.8 µM) | 8 (≈ 2.93 µg/mL) | 0.0085 | 100 | > 300 | 32 (≈ 87.3 µM) | MIC (VSE): 16 µg/mL (≈ 43.7 µM)
CC(C)CN(c1ccc(F)cc1)c1c(-c2ccccn2)nc2ccc(F)cn12 [OSA_001024] | > 4.2 |  |  |  |  |  |  |  | MIC [1, 9]: 8 µg/mL (≈ 21.1 µM); MIC [2, 10]: 8 µg/mL (≈ 21.1 µM); solubility (Aqueous solubility; [11]): 17 µM (≈ 6.43 µg/mL); fraction unbound [3, 13]: 0.0014; microsomal CLint [4, 15]: 51.2 µL/min/mg; hepatocyte CLint [5, 14]: 117 µL/min/1e6 cells
CN(c1ccc(F)cc1)c1c(-c2ccccn2)nc2cccc(F)n12 [OSA_001005] | 1.8 | 32 (≈ 95.1 µM) | 32 (≈ 95.1 µM) | 64 (≈ 21.5 µg/mL) | 0.035 | 79.3 | > 300 |  | 
COc1ccnc(-c2nc3cc(OC)ccn3c2N(C)c2ccc(F)cc2)c1 [OSA_001000] | 3.1 | 2 (≈ 5.29 µM) | 8 (≈ 21.1 µM) | 12 (≈ 4.54 µg/mL) | < 0.033 | 51.2 | > 300 | 8 (≈ 21.1 µM) | MIC (VSE): 8 µg/mL (≈ 21.1 µM)
Fc1ccc(Nc2c(-c3ccccn3)nc3ccccn23)cc1 [OSA_000987] | 3.3 | 8 (≈ 26.3 µM) | 16 (≈ 52.6 µM) | 0.5 (≈ 0.152 µg/mL) | 0.017 | 148 | 151 | 32 (≈ 105 µM) | MIC (VSE): 32 µg/mL (≈ 105 µM); MRC5 TC50 ([6]; MRC5 cells): 7.65 µM and 6.04 µM
Cc1ccc(-c2c(-c3ccccn3)nc3ccccn23)cc1 [OSA_001018] | 3.3 | 4 (≈ 14 µM) | 4 (≈ 14 µM) |  | 0.011 |  |  |  | Aqueous Solubility (NEU) (Aqueous solubility; NEU): 43 µM; HLM CLint (NEU) ([4]; human liver microsomes, NEU): 122 uL/min/mg protein; Rat Hep CLint (NEU) ([5]; rat hepatocytes, NEU): 57.7 uL/min/10x6 cells
